This passage reports Ki and Kd results from ChEMBL document CHEMBL1914418, “Biochemical and pharmacological profiling of the pro-survival protein Bcl-xL” (Bioorg Med Chem Lett, 2011).

Each structure is given as a SMILES string. pKd, pKi: −log10 of the molar value. Some results are limits rather than exact numbers.

Assay [1] in a line: Displacement of BODIPY-Bak conjugated peptide from GST-tagged human Bcl-2-like protein 1 delta136T mutant expressed in Escherichia coli BL21 cells at 10 uM after 3 hrs by fluorescence polarization competition assay. Background: Fluorescence polarisation rises when a labelled molecule tumbles more slowly, as on binding a larger partner.
The target in assay [2] is Induced myeloid leukemia cell differentiation protein Mcl-1 homolog (Mus musculus, UniProt P97287). Kind of assay: Binding affinity for GST-tagged mouse MCL1 expressed in Escherichia coli BL21 cells.
A further assay addresses T1, Bcl-2-related protein A1 (Homo sapiens, UniProt Q16548).
T1 sequence (Q16548 whole entry): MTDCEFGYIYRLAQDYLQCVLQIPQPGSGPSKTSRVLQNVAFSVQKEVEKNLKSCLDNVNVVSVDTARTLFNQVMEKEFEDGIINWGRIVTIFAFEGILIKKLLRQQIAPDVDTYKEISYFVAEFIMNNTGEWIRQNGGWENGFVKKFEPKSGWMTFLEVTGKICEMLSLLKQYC
Briefly: Binding affinity for GST-tagged human BCL2A1 expressed in Escherichia coli BL21 cells.

Assay [3] can be described thus: Displacement of BODIPY-Bak conjugated peptide from GST-tagged human Bcl-2-like protein 1 A142Gdelta136T mutant expressed in Escherichia coli BL21 cells at 10 uM after 3 hrs by fluorescence polarization competition assay.
For assay [4], the target named is Bcl-2-like protein 1 (Homo sapiens, UniProt Q07817, A142G). Briefly: Displacement of BODIPY-Bak conjugated peptide from GST-tagged human Bcl-2-like protein 1 A142G mutant expressed in Escherichia coli BL21 cells at 10 uM after 3 hrs by fluorescence polarization competition assay.
Assay [5] concerns the target Bcl-2-like protein 1 (Homo sapiens, UniProt Q07817, L130G). Kind of assay: Displacement of BODIPY-Bak conjugated peptide from GST-tagged human Bcl-2-like protein 1 L130G mutant expressed in Escherichia coli BL21 cells at 10 uM after 3 hrs by fluorescence polarization competition assay.
Assay [6] deals with Bcl-2-like protein 1 (Homo sapiens, UniProt Q07817, A93V). Briefly: Displacement of BODIPY-Bak conjugated peptide from GST-tagged human Bcl-2-like protein 1 A93V mutant expressed in Escherichia coli BL21 cells at 10 uM after 3 hrs by fluorescence polarization competition assay.
For assay [7], the target named is Bcl-2-like protein 1 (Homo sapiens, UniProt Q07817, Y101H). Kind of assay: Displacement of BODIPY-Bak conjugated peptide from GST-tagged human Bcl-2-like protein 1 Y101H mutant expressed in Escherichia coli BL21 cells at 10 uM after 3 hrs by fluorescence polarization competition assay.
Assay [8] addresses Bcl-2-like protein 1 (Homo sapiens, UniProt Q07817, G196A). Kind of assay: Displacement of BODIPY-Bak conjugated peptide from GST-tagged human Bcl-2-like protein 1 G196A mutant expressed in Escherichia coli BL21 cells at 10 uM after 3 hrs by fluorescence polarization competition assay.
For assay [9], the target named is Bcl-2-like protein 1 (Homo sapiens, UniProt Q07817, Y195F). Kind of assay: Displacement of BODIPY-Bak conjugated peptide from GST-tagged human Bcl-2-like protein 1 Y195F mutant expressed in Escherichia coli BL21 cells at 10 uM after 3 hrs by fluorescence polarization competition assay.
Assay [10] deals with Bcl-2-like protein 1 (Homo sapiens, UniProt Q07817, V141A). Briefly: Displacement of BODIPY-Bak conjugated peptide from GST-tagged human Bcl-2-like protein 1 V141A mutant expressed in Escherichia coli BL21 cells at 10 uM after 3 hrs by fluorescence polarization competition assay.
The target in assay [11] is Bcl-2-like protein 1 (Homo sapiens, UniProt Q07817, E129H). Kind of assay: Displacement of BODIPY-Bak conjugated peptide from GST-tagged human Bcl-2-like protein 1 E129H mutant expressed in Escherichia coli BL21 cells at 10 uM after 3 hrs by fluorescence polarization competition assay.
Assay [12] addresses Bcl-2-like protein 1 (Homo sapiens, UniProt Q07817, A142T). Briefly: Displacement of BODIPY-Bak conjugated peptide from GST-tagged human Bcl-2-like protein 1 A142T mutant expressed in Escherichia coli BL21 cells at 10 uM after 3 hrs by fluorescence polarization competition assay.
In assay [13] the target is Bcl-2-like protein 1 (Homo sapiens, UniProt Q07817). Briefly: Displacement of BODIPY-Bak conjugated peptide from GST-tagged human Wild type Bcl-2-like protein 1 expressed in Escherichia coli BL21 cells at 10 uM after 3 hrs by fluorescence polarization competition assay.
Assay [14] deals with Bcl-2-like protein 1 (Homo sapiens, UniProt Q07817, F97V). Kind of assay: Displacement of BODIPY-Bak conjugated peptide from GST-tagged human Bcl-2-like protein 1 F97V mutant expressed in Escherichia coli BL21 cells at 10 uM after 3 hrs by fluorescence polarization competition assay.
In assay [15] the target is Bcl-2-like protein 1 (Homo sapiens, UniProt Q07817, E96G). Kind of assay: Displacement of BODIPY-Bak conjugated peptide from GST-tagged human Bcl-2-like protein 1 E96G mutant expressed in Escherichia coli BL21 cells at 10 uM after 3 hrs by fluorescence polarization competition assay.
The target in assay [16] is Bcl-2-like protein 1 (Homo sapiens, UniProt Q07817, L130A). Briefly: Displacement of BODIPY-Bak conjugated peptide from GST-tagged human Bcl-2-like protein 1 L130A mutant expressed in Escherichia coli BL21 cells at 10 uM after 3 hrs by fluorescence polarization competition assay.
Bcl-2-like protein 1 (Homo sapiens, UniProt Q07817, L130A), sequence (Q07817 whole entry L130A): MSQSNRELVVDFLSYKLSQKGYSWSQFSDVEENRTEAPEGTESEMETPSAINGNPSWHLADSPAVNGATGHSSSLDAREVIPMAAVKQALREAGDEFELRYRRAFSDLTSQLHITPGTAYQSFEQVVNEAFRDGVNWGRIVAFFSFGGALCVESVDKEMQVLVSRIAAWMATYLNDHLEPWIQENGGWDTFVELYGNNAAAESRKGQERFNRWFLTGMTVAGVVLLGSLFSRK

Induced myeloid leukemia cell differentiation protein Mcl-1 homolog, sequence (P97287 whole entry): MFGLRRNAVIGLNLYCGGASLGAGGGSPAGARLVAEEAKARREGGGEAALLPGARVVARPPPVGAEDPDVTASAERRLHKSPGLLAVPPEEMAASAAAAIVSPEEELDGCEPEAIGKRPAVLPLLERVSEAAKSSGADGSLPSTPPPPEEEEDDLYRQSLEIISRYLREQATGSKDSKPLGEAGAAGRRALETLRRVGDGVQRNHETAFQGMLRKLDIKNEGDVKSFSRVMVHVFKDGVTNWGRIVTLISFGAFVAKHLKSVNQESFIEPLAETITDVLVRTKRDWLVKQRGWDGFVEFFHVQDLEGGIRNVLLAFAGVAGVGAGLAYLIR
Bcl-2-like protein 1 (Homo sapiens, UniProt Q07817, Y195F), sequence (Q07817 whole entry Y195F): as the sequence (Q07817 whole entry L130A) above, with A130L, Y195F counted along it
Bcl-2-like protein 1 (Homo sapiens, UniProt Q07817, A93V), sequence (Q07817 whole entry A93V): as the sequence (Q07817 whole entry L130A) above, with A93V, A130L counted along it
Bcl-2-like protein 1 (Homo sapiens, UniProt Q07817, Y101H), sequence (Q07817 whole entry Y101H): as the sequence (Q07817 whole entry L130A) above, with Y101H, A130L counted along it
Bcl-2-like protein 1 (Homo sapiens, UniProt Q07817, L130G), sequence (Q07817 whole entry L130G): as the sequence (Q07817 whole entry L130A) above, with A130G counted along it
Bcl-2-like protein 1 (Homo sapiens, UniProt Q07817, V141A), sequence (Q07817 whole entry V141A): as the sequence (Q07817 whole entry L130A) above, with A130L, V141A counted along it
Bcl-2-like protein 1 (Homo sapiens, UniProt Q07817, E129H), sequence (Q07817 whole entry E129H): as the sequence (Q07817 whole entry L130A) above, with E129H, A130L counted along it
Bcl-2-like protein 1 (Homo sapiens, UniProt Q07817, E96G), sequence (Q07817 whole entry E96G): as the sequence (Q07817 whole entry L130A) above, with E96G, A130L counted along it
Bcl-2-like protein 1 (Homo sapiens, UniProt Q07817, G196A), sequence (Q07817 whole entry G196A): as the sequence (Q07817 whole entry L130A) above, with A130L, G196A counted along it
Bcl-2-like protein 1 (Homo sapiens, UniProt Q07817, A142T), sequence (Q07817 whole entry A142T): as the sequence (Q07817 whole entry L130A) above, with A130L, A142T counted along it
Bcl-2-like protein 1 (Homo sapiens, UniProt Q07817, A142G), sequence (Q07817 whole entry A142G): as the sequence (Q07817 whole entry L130A) above, with A130L, A142G counted along it
Bcl-2-like protein 1 (Homo sapiens, UniProt Q07817, F97V), sequence (Q07817 whole entry F97V): as the sequence (Q07817 whole entry L130A) above, with F97V, A130L counted along it
Bcl-2-like protein 1 (Homo sapiens, UniProt Q07817), sequence (Q07817 whole entry): as the sequence (Q07817 whole entry L130A) above, with A130L counted along it

On to `CN(C)CC[C@H](CSc1ccccc1)Nc1ccc(S(=O)(=O)NC(=O)c2ccc(N3CCN(Cc4ccccc4-c4ccc(Cl)cc4)CC3)cc2)cc1[N+](=O)[O-]` [ABT 737], for which the pKi in assay [1] is 7.22; in assay [3], 8.00. For the same compound, the negative-log Kd (pKd) (in assay [2]; on Bcl-2-related protein A1) was below 6.00 in each case.
Consider `CN(C)CC[C@H](CSc1ccccc1)Nc1ccc(S(=O)(=O)NC(=O)c2ccc(N3CCC(C)(C)CC3)cc2)cc1[N+](=O)[O-]`, for which the pKi was 6.54 at Bcl-2-like protein 1 [4]; 7.47 in assay [1]; 7.07 on Bcl-2-like protein 1 [5]; above 9.00 at Bcl-2-like protein 1 [6]; 6.35 at Bcl-2-like protein 1 [7]; 7.39 on Bcl-2-like protein 1 [8]. Also, the negative logarithm of the Ki (pKi) at Bcl-2-like protein 1 [9] was 7.29; at Bcl-2-like protein 1 [10] it was 6.41; on Bcl-2-like protein 1 [11], 7.47; on Bcl-2-like protein 1 [12], 6.14; in assay [3], 7.35; on Bcl-2-like protein 1 [13], 8.20. Further, the pKi was 7.09 at Bcl-2-like protein 1 [14], 7.62 at Bcl-2-like protein 1 [15] and 7.33 at Bcl-2-like protein 1 [16]. For the same compound, the negative-log Kd (pKd) (in assay [2]; on Bcl-2-related protein A1) was below 6.00 throughout.

As a reminder, the pKi is the negative decadic logarithm of the Ki, by convention in mol/L. As a reminder, the pKd is −log10 of the Kd, conventionally taken in molar units. Low readings indicate a high Kd, high ones a low Kd.
